Measured values taken from ChEMBL document CHEMBL6109168, “Novel Compounds as 5-HT2A Receptor Modulators for Treating Psychiatric and Neurological Disorders” (ACS Med Chem Lett, 2025).

Target: 5-hydroxytryptamine receptor 2A (Homo sapiens, UniProt P28223)
Test: Agonist activity at human 5HT2A receptor expressed in HEK293 cells assessed as IP1 accumulation by HTRF assay
Type: functional, cell-based

Sequence of 5-hydroxytryptamine receptor 2A (P28223 whole entry): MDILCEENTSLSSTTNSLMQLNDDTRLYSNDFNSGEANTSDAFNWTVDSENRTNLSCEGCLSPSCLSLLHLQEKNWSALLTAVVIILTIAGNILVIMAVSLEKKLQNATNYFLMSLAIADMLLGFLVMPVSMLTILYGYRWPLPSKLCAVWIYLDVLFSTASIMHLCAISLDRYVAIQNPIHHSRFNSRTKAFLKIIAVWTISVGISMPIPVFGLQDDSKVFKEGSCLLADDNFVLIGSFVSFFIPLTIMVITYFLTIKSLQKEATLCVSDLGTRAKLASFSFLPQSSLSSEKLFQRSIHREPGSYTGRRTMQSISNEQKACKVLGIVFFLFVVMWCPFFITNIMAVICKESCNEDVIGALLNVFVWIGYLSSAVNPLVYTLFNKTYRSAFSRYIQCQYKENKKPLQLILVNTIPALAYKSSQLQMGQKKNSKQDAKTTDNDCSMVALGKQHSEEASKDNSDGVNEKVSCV

Row | Structure (SMILES) | EC50
1 | N#Cc1c(F)ccc2c(C3=CCCNC3)c[nH]c12 | < 100 nM
2 | C1=C(c2csc3ccccc23)CNCC1 | < 100 nM
3 | N#Cc1cc(F)cc2c(C3=CCCNC3)c[nH]c12 | < 100 nM
4 | Oc1cccc2[nH]cc(C3=CCCNC3)c12 | < 100 nM
5 | Fc1ccc2c(C3=CCCNC3)n[nH]c2c1F | < 100 nM
6 | COc1cc(Cl)c2[nH]cc(C3=CCCNC3)c2c1 | < 100 nM
